Source: ChEMBL document CHEMBL1141168, “Studies toward the pharmacophore of salvinorin A, a potent kappa opioid receptor agonist” (J Med Chem, 2005)

Tests used:
[1] = target: T1, Kappa-type opioid receptor (Rattus norvegicus, UniProt P34975); assay: biochemical; assay type: cell-based, HEK293
Description: Inhibition of [3H]U-69593 binding to rat opioid receptor kappa 1 expressed in HEK 293 cells

Rattus norvegicus [2] = organism: Rattus norvegicus; assay: Emax value against intracellular calcium mobilization in rat; assay type: functional
Rattus norvegicus [3] = organism: Rattus norvegicus; assay: Effective concentration of compound against intracellular calcium mobilization in rat; assay type: functional
[4] = target: T1, Kappa-type opioid receptor; assay: Inhibition of [3H]diprenorphine binding to rat opioid receptor kappa 1 expressed in HEK 293 cells; assay type: cell-based, HEK293

T1 sequence (P34975 whole entry): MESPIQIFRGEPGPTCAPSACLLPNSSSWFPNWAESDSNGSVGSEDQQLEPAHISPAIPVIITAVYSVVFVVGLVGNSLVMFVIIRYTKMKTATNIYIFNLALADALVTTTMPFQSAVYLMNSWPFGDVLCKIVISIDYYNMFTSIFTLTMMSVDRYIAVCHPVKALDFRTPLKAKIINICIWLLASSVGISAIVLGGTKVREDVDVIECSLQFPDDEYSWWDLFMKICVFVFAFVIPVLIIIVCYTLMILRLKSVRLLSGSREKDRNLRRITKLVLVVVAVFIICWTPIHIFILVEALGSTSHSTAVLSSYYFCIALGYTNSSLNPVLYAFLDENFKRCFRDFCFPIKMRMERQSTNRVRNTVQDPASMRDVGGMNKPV

Compound | Ki [1] [nM] | Emax (Rattus norvegicus [2]) [%] | EC50 (Rattus norvegicus [3]) [nM] | Ki [4] [nM]
COC(=O)C1=C[C@H](O)[C@H](OC(C)=O)[C@@H]2[C@@]3(C)C[C@@H](c4ccoc4)OC(=O)[C@@H]3CC[C@@]12C | > 10000 |  |  | 
COC(=O)[C@@H]1C[C@H](OC(C)=O)C(=O)[C@H]2[C@@]1(C)CCC1=CO[C@H](c3ccoc3)C[C@@]12C | 6 | 103 | 223 | 
COC(=O)C1=C[C@H](OC(C)=O)[C@H](O)[C@@H]2[C@@]3(C)C[C@@H](c4ccoc4)OC(=O)[C@@H]3CC[C@@]12C |  |  |  | > 10000
COC(=O)[C@@H]1C[C@H](OC(C)=O)C(=O)[C@H]2[C@@]1(C)CC[C@H]1C(O)O[C@H](c3ccoc3)C[C@]21C (some centres undefined) | 59 | 107 | 78 | 
COC(=O)[C@@H]1C[C@H](OC(C)=O)[C@H](OC(C)=O)[C@H]2[C@@]1(C)CC[C@H]1C(=O)O[C@H](c3ccoc3)C[C@]21C | > 10000 |  |  | 
COC(=O)[C@@H]1C[C@H](OC(C)=O)C(=O)[C@H]2[C@@]1(C)CC[C@H]1C(=O)O[C@H](C3CCOC3)C[C@]21C (some centres undefined) | 156 | 108 | 126 | 
COC(=O)[C@@H]1C[C@H](OC(C)=O)C[C@H]2[C@@]1(C)CC[C@H]1C(=O)O[C@H](c3ccoc3)C[C@]21C | 18 | 122 | 141 | 
COC(=O)C1=C[C@H](OC(C)=O)[C@H](OC(C)=O)[C@@H]2[C@@]3(C)C[C@@H](c4ccoc4)OC(=O)[C@@H]3CC[C@@]12C | 1020 |  |  | 
COC(=O)[C@@H]1C[C@H](OC(C)=O)C(=O)[C@@H]2[C@@]3(C)C[C@@H](c4ccoc4)OC[C@@H]3CC[C@]21C | 6 | 103 | 223 | 
COC(=O)[C@@H]1C[C@H](OC=O)C(=O)[C@H]2[C@@]1(C)CC[C@H]1C(=O)O[C@H](c3ccoc3)C[C@]21C | 18 | 108 | 315 | 
CC(=O)O[C@H]1C[C@@H](CO)[C@]2(C)CC[C@H]3C(=O)O[C@H](c4ccoc4)C[C@]3(C)[C@H]2C1=O | 347 |  | > 10000 | 
COC(=O)[C@@H]1C[C@H](OC(C)=O)[C@H](O)[C@H]2[C@@]1(C)CC[C@H]1C(=O)O[C@H](c3ccoc3)C[C@]21C [1-ALPHA-HYDROXYSALVINORIN A] | 1130 |  |  | 
COC(=O)[C@@H]1C[C@H](OC(C)=O)C(=O)[C@@H]2[C@@]3(C)C[C@@H](c4ccoc4)OC(=O)[C@H]3CC[C@]21C [SALVINORIN A (ESTER)] |  | 78 | 244 | 
COC(=O)[C@@H]1C[C@H](OC(C)=O)C(=O)[C@H]2[C@@]1(C)CC[C@H]1C(=O)O[C@H](c3ccoc3)C[C@]21C [SALVINORIN A] |  | 100 | 46 | 
